This assay concerns BDF1 mice, P388 leukemia ip, median survival T/C. Kind of assay: NCI In Vivo Anticancer Drug Screen. Data for tumor model P388 Leukemia (intraperitoneal) in B6D2F1 (BDF1) mice. Particulars: endpoint: median survival time, higher = longer survival. The method in brief: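 Reported as T/C, where T is the survival measurement in dosed animals and C the same measurement in vehicle controls.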

Setting [1] is: dose: 50.0 mg/kg/injection, schedule: Q01DX009 (ip), vehicle: saline.
Where [2] appears, read: dose: 100.0 mg/kg/injection, schedule: Q01DX009 (ip), vehicle: saline.
The mark [3] stands for this setting: dose: 100.0 mg/kg/injection, schedule: Q04DX003 (ip), vehicle: saline with Tween-80.
[4] abbreviates: dose: 200.0 mg/kg/injection, schedule: Q04DX003 (ip), vehicle: saline with Tween-80.
[5] abbreviates: dose: 400.0 mg/kg/injection, schedule: Q04DX003 (ip), vehicle: saline with Tween-80.
[6] abbreviates: dose: 100.0 mg/kg/injection, schedule: Q04DX003 (ip), vehicle: Klucel (hydroxypropylcellulose) (HPC).
Where [7] appears, read: dose: 200.0 mg/kg/injection, schedule: Q04DX003 (ip), vehicle: Klucel (hydroxypropylcellulose) (HPC).
The mark [8] stands for this setting: dose: 400.0 mg/kg/injection, schedule: Q04DX003 (ip), vehicle: Klucel (hydroxypropylcellulose) (HPC).
[9] abbreviates: dose: 100.0 mg/kg/injection, schedule: Q01DX009 (ip), vehicle: saline with Tween-80.
Setting [10] is: dose: 200.0 mg/kg/injection, schedule: Q01DX009 (ip), vehicle: saline with Tween-80.
[11] abbreviates: dose: 50.0 mg/kg/injection, schedule: Q01DX009 (ip), vehicle: saline with Tween-80.

The results in this text go back to PubChem BioAssay AID328 (DTP/NCI, 2004).

Several values for one entry are separate records, joined by “and”; a condition that tells them apart may be missing. Equal values may be shown once. Inconclusive results and toxic doses are left out. Starred links: 1 amine or outer side, 2 acyl side, 3 side chain; linkers in the order of their positions; H or OH if unused. Positions of bridges follow the written chain, without caps; N, C: chain ends. Non-standard residues stand in square brackets, D forms with d. Residues, ends and D or L forms follow the SMILES beside them. Chains are numbered I, II in the order given. Actinocin(9to1) = Cc1c2oc3c(C)ccc(C(=O)[*:1])c3nc-2c(C(=O)[*:2])c(N)c1=O; NMeV = CN[CH](C(=O)O)C(C)C; Sar = CNCC(=O)O

As to `O=C(O)C(O)C(O)C1[O][Sb][O]C1CO` (configuration not stated), the T/C runs as follows: (dose: 22.0 mg/kg/injection, schedule: Q04DX003 (ip), vehicle: saline) 110 % of control; under setting [1], 150 % of control; (dose: 75.0 mg/kg/injection, schedule: Q01DX009 (ip), vehicle: saline) 155 % of control; under setting [2], 166 % of control; (dose: 150.0 mg/kg/injection, schedule: Q01DX009 (ip), vehicle: saline) 155 % of control; (dose: 150.0 mg/kg/injection, schedule: Q04DX003 (ip), vehicle: saline) 177 % of control. In addition, the T/C (dose: 225.0 mg/kg/injection, schedule: Q01DX009 (ip), vehicle: saline) was 150 % of control and 183 % of control.
With `O=C1c2ccccc2CCCC1N1CCOCC1` (configuration not stated), the T/C reads like this: under setting [3], 100 % of control; under setting [4], 90 % of control; under setting [5], 90 % of control.
For the compound `ClCC(Cl)CN1CCCCC1` (configuration not stated), the T/C (dose: 12.5 mg/kg/injection, schedule: Q01DX009 (ip), vehicle: saline) is 90 % of control; the T/C (dose: 25.0 mg/kg/injection, schedule: Q01DX009 (ip), vehicle: saline) was 86 % of control; the T/C under setting [1] is 104 % of control.
For the compound `BrC(Br)c1ccc2ccccc2n1`, the T/C (dose: 100.0 mg/kg/injection, schedule: Q01DX009 (ip), vehicle: Klucel (hydroxypropylcellulose) (HPC)) is 108 % of control; the T/C under setting [6] was 100 % of control; the T/C (dose: 200.0 mg/kg/injection, schedule: Q01DX009 (ip), vehicle: Klucel (hydroxypropylcellulose) (HPC)) is 108 % of control; the T/C under setting [7] was 91 % of control; the T/C (dose: 400.0 mg/kg/injection, schedule: Q01DX009 (ip), vehicle: Klucel (hydroxypropylcellulose) (HPC)) is 95 % of control; the T/C under setting [8] was 91 % of control.
Regarding `CCCCCCCCCCCCCCCC(=O)N1CCC(N2CCCCC2)CC1`, the T/C reads like this: (dose: 200.0 mg/kg/injection, schedule: Q01DX001 (ip), vehicle: Klucel (hydroxypropylcellulose) (HPC)) 109 % of control; (dose: 400.0 mg/kg/injection, schedule: Q01DX001 (ip), vehicle: Klucel (hydroxypropylcellulose) (HPC)) 90 % of control.
Take `O=C(/C=C/c1ccc(Cl)cc1)NCC(O)CO` (configuration not stated): the T/C (dose: 400.0 mg/kg/injection, schedule: Q01DX009 (ip), vehicle: water) was 91 % of control.
Regarding `CC1(C)C(=O)C2(C(=O)O)CCC1C2` (configuration not stated), the T/C is 100 % of control under setting [9]; 95 % of control under setting [3]; 95 % of control under setting [10]; 109 % of control under setting [4]; 100 % of control (dose: 400.0 mg/kg/injection, schedule: Q01DX009 (ip), vehicle: saline with Tween-80); 100 % of control under setting [5].
As to `O=[N+]([O-])/C=C/c1c(Cl)cccc1Cl`, the T/C (dose: 50.0 mg/kg/injection, schedule: Q04DX003 (ip), vehicle: other) is 122 % of control.
Regarding `CN(C)C1=C(N2CC2)C(=O)C(N(C)C)=C(N2CC2)C1=O`, the T/C by setting is: (dose: 0.25 mg/kg/injection, schedule: Q01DX009 (ip), vehicle: saline) 87 % of control; (dose: 0.5 mg/kg/injection, schedule: Q01DX009 (ip), vehicle: saline) 151 % of control; (dose: 1.0 mg/kg/injection, schedule: Q01DX009 (ip), vehicle: saline) 174 % of control.
As for `O=C(N=Nc1c(O)[nH]c2ccccc12)C(=O)Nc1cccc(C(F)(F)F)c1`, the T/C under setting [11] is 87 % of control.
As for `CC(=O)Nc1ccc2c3c(ccc([N+](=O)[O-])c13)CC2`, the T/C is, setting by setting: under setting [2], 90 % of control; (dose: 200.0 mg/kg/injection, schedule: Q01DX009 (ip), vehicle: saline) 95 % of control.
In the case of `CCN(CCO)CC(C)Nc1ccc([N+](=O)[O-])c2sc3ccccc3c(=O)c12` (configuration not stated), the T/C (dose: 33.0 mg/kg/injection, schedule: Q01DX009 (ip), vehicle: saline with Tween-80) was 195 % of control; the T/C under setting [11] is 177 % of control; the T/C (dose: 66.0 mg/kg/injection, schedule: Q04DX003 (ip), vehicle: saline with Tween-80) is 162 % of control; the T/C (dose: 75.0 mg/kg/injection, schedule: Q01DX009 (ip), vehicle: saline with Tween-80) was 95 % of control; the T/C under setting [3] is 191 % of control and 200 % of control; the T/C (dose: 150.0 mg/kg/injection, schedule: Q04DX003 (ip), vehicle: saline with Tween-80) is 220 % of control. In addition, the T/C runs as follows: under setting [4], 113 % of control; under setting [5], 95 % of control.
For `CCCCNS(=O)(=O)c1ccc(OC)c(N)c1`, the T/C is 95 % of control under setting [6], 100 % of control under setting [7] and 100 % of control under setting [8].
With `O=[N+]([O-])c1ccc(S(=O)(=O)Oc2ccccc2)cc1`, the T/C by setting is: under setting [11], 105 % of control; (dose: 50.0 mg/kg/injection, schedule: Q04DX003 (ip), vehicle: Klucel (hydroxypropylcellulose) (HPC)) 100 % of control; under setting [9], 100 % of control; under setting [6], 105 % of control; under setting [10], 105 % of control; under setting [7], 105 % of control.
For the compound `CC[As](=O)(O)CC`, the T/C is, setting by setting: under setting [1], 103 % of control; (dose: 50.0 mg/kg/injection, schedule: Q04DX003 (ip), vehicle: saline) 100 % of control; under setting [2], 100 % of control and 108 % of control; (dose: 132.0 mg/kg/injection, schedule: Q01DX009 (ip), vehicle: saline) 95 % of control; (dose: 200.0 mg/kg/injection, schedule: Q04DX003 (ip), vehicle: saline) 108 % of control.
In the case of `CC1CC(C)(C)CC2CC(C(=O)O)(C(=O)O)CC12` (configuration not stated), the T/C runs as follows: (dose: 25.0 mg/kg/injection, schedule: Q04DX003 (ip), vehicle: saline sonified) 110 % of control; (dose: 50.0 mg/kg/injection, schedule: Q04DX003 (ip), vehicle: saline sonified) 100 % of control; (dose: 100.0 mg/kg/injection, schedule: Q04DX003 (ip), vehicle: saline sonified) 100 % of control.
Turning to `OC(Cc1cc(CC(O)(C(F)(F)F)C(F)(F)F)ncn1)(C(F)(F)F)C(F)(F)F`, the T/C by setting is: under setting [9], 95 % of control; under setting [10], 90 % of control.
In the case of `Cc1c2oc3c(C)ccc(C(=O)NC4C(=O)NC(C(C)C)C(=O)N(C)CC(=O)N(C)CC(=O)N(C)C(C(C)C)C(=O)OC4C)c3nc-2c(C(=O)NC2C(=O)NC(C(C)C)C(=O)N(C)CC(=O)N(C)CC(=O)N(C)C(C(C)C)C(=O)OC2C)c(N)c1=O` (configuration not stated) (I: TV[Sar][Sar][NMeV] / II: TV[Sar][Sar][NMeV]; ester I:1-I:C, II:1-II:C; linker I:N-II:N via Actinocin(9to1); configuration not given here), the T/C runs as follows: (dose: 125.0 micrograms/kg/injection, schedule: Q01DX009 (ip), vehicle: saline + alcohol) 190 % of control; (dose: 250.0 micrograms/kg/injection, schedule: Q01DX009 (ip), vehicle: saline + alcohol) 233 % of control; (dose: 500.0 micrograms/kg/injection, schedule: Q01DX009 (ip), vehicle: saline + alcohol) 239 % of control; (dose: 750.0 micrograms/kg/injection, schedule: Q04DX003 (ip), vehicle: saline + alcohol) 218 % of control; (dose: 1500.0 micrograms/kg/injection, schedule: Q04DX003 (ip), vehicle: saline + alcohol) 239 % of control and 166 % of control; (dose: 3000.0 micrograms/kg/injection, schedule: Q04DX003 (ip), vehicle: saline + alcohol) 175 % of control.
In the case of `CCOC(=O)CCC(C)(c1ccc(O)cc1)c1ccc(O)cc1`, the T/C was 95 % of control (dose: 50.0 mg/kg/injection, schedule: Q01DX009 (ip), vehicle: gum acacia); 108 % of control (dose: 100.0 mg/kg/injection, schedule: Q01DX009 (ip), vehicle: gum acacia); 104 % of control (dose: 100.0 mg/kg/injection, schedule: Q04DX003 (ip), vehicle: gum acacia); 100 % of control (dose: 200.0 mg/kg/injection, schedule: Q01DX009 (ip), vehicle: gum acacia); 104 % of control (dose: 200.0 mg/kg/injection, schedule: Q04DX003 (ip), vehicle: gum acacia); 104 % of control (dose: 400.0 mg/kg/injection, schedule: Q04DX003 (ip), vehicle: gum acacia).
With `O=C(CN1CCCCC1)Nc1ccc(Br)cc1`, the T/C reads like this: under setting [11], 96 % of control; under setting [9], 104 % of control; under setting [10], 112 % of control.
